Measured values taken from US20150344457A1, “METHODS OF INHIBITING PRMT5” (EPIZYME, INC., priority 2012, published 2015).

Columns and labels:
Z-138 cells [1] = test: Z-138 Methylation Assay (In Cell Western for symmetric di-methyl arginine and DNA content); type: cell-based; details: Homo sapiens, Table D-2, read-out: ICW EC50
How it was run: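 Z-138 cells at 50,000 cells/mL exposed to compound 96 h at 37 °C, then attached to poly-D-lysine plates, fixed with paraformaldehyde and probed with anti-symmetric di-methyl arginine plus DRAQ5 DNA stain. 800/700 nm ratio normalized to DMSO and 3 μM reference controls; IC50 from triplicate wells.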

Z-138 cells [2] = test: Z-138 Proliferation Assay (Cell Titer Glo, 5 days); type: cell-based; details: Homo sapiens, Table D-2
How it was run: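 Exponentially growing Z-138 cells (10,000 cells/ml) in RPMI 1640 with 10% FBS are exposed to nine-point 3-fold dilutions (final top concentration 20 μM, 0.2% DMSO) for 5 days at 37° C. Viability is measured as ATP by CellTiter-Glo luminescence. The 50% inhibitory concentration comes from a 4-parameter fit.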

EC50 (Z-138 cells [1]) [µM] | SMILES | EC50 (Z-138 cells [2]) [µM]
1 to 10 | CNC(=O)Cn1cnc2ccc(-c3cccc(OCC(O)CN4CCc5ccccc5C4)c3)cc21 (stereo not drawn) [Compound D262] | 1 to 10
0.101 to 1 | O=C(Cn1cnc2ccc(-c3cccc(OCC(O)CN4CCc5ccccc5C4)c3)cc21)N1CCCC1 (stereo not drawn) [Compound D263] | 10 to 40
1 to 10 | O=C(Cn1cnc2ccc(-c3cccc(OCC(O)CN4CCc5ccccc5C4)c3)cc21)N1CCOCC1 (stereo not drawn) [Compound D264] | 1 to 10
0.101 to 1 | OC(CNc1cc(-c2ccc3ncn(C4COC4)c3c2)ccn1)CN1CCc2ccccc2C1 (stereo not drawn) [Compound D265] | 1 to 10
0.101 to 1 | OC(COc1cccc(-c2ccc3ncn(C4COC4)c3c2)c1)CN1CCc2ccccc2C1 (stereo not drawn) [Compound D269] | 10 to 40

More lines, now with the values behind:

SMILES | EC50 (Z-138 cells [1]) [µM] | EC50 (Z-138 cells [2]) [µM]
OC(CNc1cc(-c2ncc3ccn(C4CCNCC4)c3n2)ccn1)CN1CCc2ccccc2C1 (stereo not drawn) [Compound D255] | < 0.1 | 0.101 to 1
CC(=O)N1CCC(n2ccc3cnc(-c4ccnc(NCC(O)CN5CCc6ccccc6C5)c4)nc32)CC1 (stereo not drawn) [Compound D256] | < 0.1 | 0.101 to 1
O[C@@H](COc1cccc(-c2cccc3cccnc23)c1)CN1CCc2ccccc2C1 [Compound D257] | 0.101 to 1 | 1 to 10
Cn1cc2ccc(-c3cccc(NCC(O)CN4CCc5ccccc5C4)c3)nc2n1 (stereo not drawn) [Compound D261] | 0.101 to 1 | 10 to 40
Cc1ncc2ccc(-c3cccc(OCC(O)CN4CCc5ccccc5C4)c3)cn12 (stereo not drawn) [Compound D266] | 1 to 10 | 1 to 10
CN1CCN(C(=O)Cn2cnc3ccc(-c4cccc(OCC(O)CN5CCc6ccccc6C5)c4)cc32)CC1 (stereo not drawn) [Compound D270] | 0.101 to 1 | 10 to 40
Cn1cnc2ccc(-c3cc(NCC(O)CN4CCc5ccccc5C4)n[nH]3)cc21 (stereo not drawn) [Compound D271] | 0.101 to 1 | > 20
Cn1cnc2cc(-c3cc(NCC(O)CN4CCc5ccccc5C4)n[nH]3)ccc21 (stereo not drawn) [Compound D272] | 0.101 to 1 | 1 to 10
CC(=O)N(CC(O)CN1CCc2ccccc2C1)c1cccc(-c2ccc3ncn(C)c3c2)c1 (stereo not drawn) [Compound D273] | 0.101 to 1 | 10 to 40
Cn1cnc2ccc(-c3ccnc(NC[C@H](O)CN4CCc5ccccc5C4)c3)cc21 [Compound D275] | 0.101 to 1 | 1 to 10
